Experimental data reported in patent US7091243B2, “Anti-irritants” (Croda, Inc., priority 2001, dated 2006).

What was measured:
[1] = system: MDCK (Kidney, Canine) strain NBL-2 cells; test: Trans-Epithelial Permeability (TEP) Assay, intracellular leakage of sodium fluorescein; format: cell-based; details: for anti-irritating activity: 3% ester in shampoo base, Table 7; for anti-irritating activity, comparison between esters: referring to Table 4, 5% ester
Text: The test methodology for measuring the irritation potential of alkoxylated esters is Trans-Epithelial Permeability (TEP) Assay. The TEP Assay measures intracellular leakage of a suitable marker reagent, such as sodium fluorescein, through cells that were exposed to irritant-containing compositions. Smaller leakage indicates lower degree of cell damage. If the cells are exposed to an irritant-containing composition with and without an anti-irritant, the magnitude of reduction in the intracellular leakage measures the anti-irritating ability of the anti-irritant. For additional discussion of the TEP Assay, see Tchao, R., Trans-Epithelial Permeability of Fluorescein In Vitro As An Assay To Determine Eye Irritants, Progress in In Vitro Toxicology, A M Goldberg ed., 6:271–283 (1988); Drewitt-Barlow, B., McPherson, J., Broyd, J. and Williamson, 2000. No Tears for Baby. Global Cosmetic Industry, (October, 2000): 16–20; Burke, J. and Joseph, L. B., 2000, In Vitro Analysis of the Irritation Mitigating Properties of PEG-150 Pentaerythrityl Tetrastearate, Society of Cosmetic Chemists, 2000 Technology Showcase, NY, N.Y., all of which are incorporated by reference herein.
The ingredients were dissolved in distilled water and pH was adjusted to 6.8 to 7.2. Sodium laurel ether sulfate (triethoxylated) is a known irritant. The irritation potentials of the compositions I, II, III and IV were measured using the TEP assay as follows.
MDCK (Kidney, Canine) strain NBL-2 purchased from American Type Culture Collection (CCL 34) were cultured under standard conditions. Three days prior to experimentation the cells were subcultured onto Corning 6.5 mm Transwell porous cell culture inserts at 1×10^5 cells per insert. Cells are grown to confluence in 3 days. The inserts were washed 5 times with phosphate buffered saline (PBS) immediately before testing. All reagents were made prior to experimentation, with the exception of the final dilutions with a saline solution, which were prepared on the day of the experiment.
The compositions I, II, III, and IV were diluted to 1:50 and 1:100 with Hanks Buffered Saline Solution (HBSS). For example, to prepare a 1:50 dilution of the test composition I, 1 part of the test composition I was mixed with 49 parts of HBSS. The diluted samples were placed on the ventral side of the insert (in duplicate) in direct contact with the cells for 15 minutes. Two inserts with HBSS were used as the negative control and inserts without cells were used as references of 100% leakage. After application of the test article, the inserts were washed with large amounts of PBS.
Sodium fluorescein was added directly to the cell monolayer and 1 ml of HBSS was placed in the well below. After 30 minutes of incubation at room temperature triplicate 200 μl samples were removed from the well and the optical density (OD) of the well fluid was determined. The experimental OD was then compared to the OD of 100% leakage reference (filter without cells), and provided a measure of irritation potential of the tested compositions.
The reductions in the irritation potential were calculated as the percentage of the absolute reduction relative to the control formulation (control is taken as 100%, and the percentages of reduction are calculated as 100% minus (observed leakage)/(observed leakage of control)×100%).

[2] = system: Epiocular™ Tissue Model (OCL-200); test: Epiocular Tissue Model (OCL-200) cell survival, MTT readout; format: cell-based; details: 5% ester added to 10% SLS in PBS
Description: The following example illustrates the discovery of the anti-irritation activity of certain alkoxylated esters. A test composition A and a control composition B were prepared. The test composition A contained 5% of Di-PPG-3-PEG-4 Myristyl Ether Adipate, an alkoxylated (tripropoxy-tetraethoxy) diester of tripropoxy-tetraethoxy myristyl alcohol and adipic acid, and 10% of sodium laurel sulfate (SLS), a known irritant, in Phosphate Buffered Saline (PBS) at pH 6.8–7.2. The control composition B contained 10% SLS in PBS at the same pH without the alkoxylated ester. A separate solution of PBS (without SLS and the ester) was used as a negative control solution. The testing was carried out on Epiocular™, Tissue Model (OCL-200), from MatTek Corporation. Epiocular™ inserts were equilibrated overnight in assay media. Test composition A and B, and the negative control solution were then separately placed in direct contact with the cells. For each test substance, the progress of cell death was measured at 1, 5, and 10 minutes. The negative control inserts were exposed to phosphate buffered saline (PBS) for 10 minutes. The inserts were washed with PBS, equilibrated in Eagle's Minimal Essential Medium (EMEM) prior to incubation in MTT (3-[4,5-Dimethylthiazol-2-yl]-2,5-diphenyltetrazolium bromide), and extracted in isopropyl alcohol overnight. […]

Substance | anti-irritating activity [1] | anti-irritating activity, comparison between esters [1] | effect on cell death [2] | reduction in the irritation potential of the shampoo ([1]; 5% ester in J&J Baby Shampoo, Table 9)
Di-PPG-3-PEG-4 Cetyl Ether Adipate | show anti-irritating activity, with the magnitude of activity being substantially greater | – | – | –
Di-PPG-2-PEG-10 Myristyl Adipate | show anti-irritating activity | greater anti-irritating activity than Di-PPG-2-PEG-10 Lauryl Adipate | – | –
Di-PPG-3-PEG-4 Myristyl Ether Adipate | – | – | substantially reduces cell death | dramatic reduction in the irritation potential
Di-PPG-2-PEG-10 Steareth Ether Adipate [Di-PPG-2-PEG-10 Steareth Adipate] | – | greater anti-irritating activity than Di-PPG-2-PEG-10 Myristyl Adipate | – | –
